Results on three compounds are retold here after ChEMBL document CHEMBL4368940, “Development of a novel NURR1/NOT agonist from hit to lead and candidate for the potential treatment of Parkinson's disease” (Bioorg Med Chem Lett, 2019).

Series [1] is described as follows: Drug level in human hepatocytes treated with (3-(2-(4-chlorophenyl)imidazo[1,2-a]pyridin-6-yl)phenyl)methanol. Format: ADME, cell-based, Hepatocyte.
The nature of series [2]: AUC in C57BL/6 mouse brain at 10 mg/kg, po administered as single dose. Format: ADME, organism-based.
Series [3] has as its target T1, Voltage-gated inwardly rectifying potassium channel KCNH2 (Homo sapiens, UniProt Q12809). Description: Inhibition of human ERG.
Series [4] is described as follows: Clearance in human hepatocytes assessed per million cells. Format: ADME, cell-based, Hepatocyte.
The species named for series [5] is Rattus norvegicus. Description: Neuroprotective activity in poly(I:C)-induced Sprague-Dawley rat Parkinson's disease lesion model assessed as reduction in brain gliosis. Format: functional, organism-based.
A short description of series [6]: Drug level in anaesthetized dog heart administered as single iv dose. To be noted: in vivo, read-out: Drug uptake. Format: ADME, organism-based, Canis lupus familiaris.
A short description of series [7]: Cardiotoxicity in iv dosed anaesthetized dog assessed as electrocardiographic changes administered as single dose measured after 5 mins. The series is classed as toxicity, organism-based, Canis lupus familiaris. To be noted: in vivo.
Series [8] deals with Nuclear receptor subfamily 4 group A member 2 (Mus musculus) (UniProt Q06219). Description: Agonist activity at Nurr1 in co-culture of mouse primary neurons and microglia assessed as inhibition of LPS-induced neurotoxicity by measuring neuroprotection at 3 uM. Further details: scale not given: the % may be the effect or the level left.
Nuclear receptor subfamily 4 group A member 2 (Mus musculus), sequence (Q06219 whole entry): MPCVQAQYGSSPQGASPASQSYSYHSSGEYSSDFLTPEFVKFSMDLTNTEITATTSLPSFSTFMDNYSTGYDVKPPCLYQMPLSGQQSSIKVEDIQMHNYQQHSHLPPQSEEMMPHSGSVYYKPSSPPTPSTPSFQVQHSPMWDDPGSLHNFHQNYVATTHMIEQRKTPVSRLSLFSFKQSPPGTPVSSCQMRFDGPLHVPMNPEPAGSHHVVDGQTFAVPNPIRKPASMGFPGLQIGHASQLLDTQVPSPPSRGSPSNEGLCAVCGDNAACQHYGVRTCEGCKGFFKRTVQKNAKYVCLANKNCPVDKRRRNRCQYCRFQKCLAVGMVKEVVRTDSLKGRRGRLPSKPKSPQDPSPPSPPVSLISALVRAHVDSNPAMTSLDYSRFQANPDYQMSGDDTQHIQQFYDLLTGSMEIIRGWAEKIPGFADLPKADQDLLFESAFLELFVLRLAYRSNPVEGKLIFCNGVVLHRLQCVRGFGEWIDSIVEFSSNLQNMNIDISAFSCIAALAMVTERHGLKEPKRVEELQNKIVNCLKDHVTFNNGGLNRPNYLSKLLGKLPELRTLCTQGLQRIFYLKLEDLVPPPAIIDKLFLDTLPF
Series [9] in a line: Apparent half-life of the terminal disposition phase in C57BL/6 mouse plasma at 3 mg/kg, iv administered as single dose. Format: ADME, organism-based. The note with it: in vivo.
For another series, the system named is Cavia porcellus. Description: Hemodynamic activity iv dosed anaesthetized guinea pig administered as single dose measured after 5 mins. Format: ADME, organism-based. The note with it: in vivo.
The target in series [10] is Nuclear receptor subfamily 4 group A member 2 (Mus musculus) (UniProt Q06219). Description: Agonist activity at Nurr1 in mouse MG7 cells assessed as inhibition of LPS-induced IL1beta secretion at 3 uM. The series is classed as cell-based.
Series [11] in a line: Cmax in C57BL/6 mouse brain at 10 mg/kg, po administered as single dose. Format: ADME, organism-based. On the set-up: dose 10 mg/kg, route oral.
The next series concerns Canis familiaris. Description: Hemodynamic activity iv dosed anaesthetized dog administered as single dose measured after 5 mins. The note with it: in vivo. The series is classed as ADME, organism-based, Canis lupus familiaris.
Series [12] has as its system Rattus norvegicus. Description: Antiinflammatory activity in Sprague-Dawley rat assessed as inhibition of LPS-induced TNFalpha release at 30 mg/kg. The series is classed as functional.
A short description of series [13]: Drug level in anaesthetized guinea pig heart administered as single iv dose. Format: ADME, organism-based, Cavia porcellus. To be noted: in vivo, read-out: Drug uptake.
Series [14] is described as follows: Apparent half-life of the terminal disposition phase in C57BL/6 mouse brain at 10 mg/kg, po administered as single dose. The series is classed as ADME, organism-based. The note with it: read-out: t1/2 lambda z (converted).
Series [15] can be described thus: Cardiotoxicity in iv dosed anaesthetized guinea pig assessed as electrocardiographic changes administered as single dose measured after 5 mins. Format: toxicity, organism-based, Cavia porcellus. The note with it: in vivo.
The nature of series [16]: Cmax in C57BL/6 mouse brain at 3 mg/kg, iv administered as single dose. The series is classed as ADME, organism-based. On the set-up: dose 3 mg/kg, route intravenous.
The nature of series [17]: Apparent half-life of the terminal disposition phase in C57BL/6 mouse brain at 3 mg/kg, iv administered as single dose. To be noted: read-out: t1/2 lambda z (converted). Format: ADME, organism-based.
Series [18] in a line: Tmax in C57BL/6 mouse plasma at 10 mg/kg, po administered as single dose. Format: ADME, organism-based.
Series [19] in a line: AUC in C57BL/6 mouse plasma at 10 mg/kg, po administered as single dose. The series is classed as ADME, organism-based.
Series [20] can be described thus: Apparent half-life of the terminal disposition phase in C57BL/6 mouse plasma at 10 mg/kg, po administered as single dose. Format: ADME, organism-based. To be noted: read-out: t1/2 lambda z (converted).
Series [21] is described as follows: AUC in C57BL/6 mouse brain at 3 mg/kg, iv administered as single dose. The series is classed as ADME, organism-based.
The nature of series [22]: Cardiotoxicity in iv dosed anaesthetized guinea pig assessed as electrophysiological changes administered as single dose measured after 5 mins. To be noted: in vivo. The series is classed as toxicity, organism-based, Cavia porcellus.
Series [23] is described as follows: AUC in C57BL/6 mouse plasma at 3 mg/kg, iv administered as single dose. The series is classed as ADME, organism-based.
Series [24] can be described thus: Cmax in C57BL/6 mouse plasma at 3 mg/kg, iv administered as single dose. Format: ADME, organism-based. Further details: dose 3 mg/kg, route intravenous.
The nature of series [25]: Cardiotoxicity in iv dosed anaesthetized dog assessed as electrophysiological changes administered as single dose measured after 5 mins. The series is classed as toxicity, organism-based, Canis lupus familiaris. The note with it: in vivo.
The target of series [26] is Nuclear receptor subfamily 4 group A member 2 (Rattus norvegicus) (UniProt Q07917). Description: Agonist activity at Nurr1 in rat mesencephalic primary neurons assessed as increase in tyrosine hydroxylase expression at 3 uM.
Nuclear receptor subfamily 4 group A member 2 (Rattus norvegicus), sequence (Q07917 whole entry, the tested form may be a part): as the sequence (Q06219 whole entry) above, with S134G, P182R counted along it
Series [27] deals with Nuclear receptor subfamily 4 group A member 2 (Homo sapiens, UniProt P43354). Description: Agonist activity at full-length Gal4-fused NOT (unknown origin) expressed in CHO cells by luciferase reporter gene assay. Format: cell-based. To be noted: for EC50: read-out: EC50. In general terms: A reporter such as luciferase makes a cellular process visible.
Nuclear receptor subfamily 4 group A member 2 (Homo sapiens, UniProt P43354), sequence (P43354 whole entry, the tested form may be a part): as the sequence (Q06219 whole entry) above, with S131T, S134G, D354E counted along it
A short description of series [28]: Cmax in C57BL/6 mouse plasma at 10 mg/kg, po administered as single dose. The series is classed as ADME, organism-based. Further details: dose 10 mg/kg, route oral.
A short description of series [29]: Ratio of AUC in C57BL/6 mouse brain to plasma at 3 mg/kg, iv administered as single dose. Format: ADME, organism-based. The note with it: read-out: Ratio AUC.
The nature of series [30]: Ratio of AUC in C57BL/6 mouse brain to plasma at 10 mg/kg, po administered as single dose. The series is classed as ADME, organism-based. The note with it: read-out: Ratio AUC.
The species named for series [31] is Rattus norvegicus. Description: Neuroprotective activity in poly(I:C)-induced Sprague-Dawley rat Parkinson's disease lesion model assessed as reduction in IL6 level. Format: functional, organism-based.
Series [32] in a line: Stability in human plasma. The series is classed as ADME, cell-free.
Series [33] concerns the target Nuclear receptor subfamily 4 group A member 2 (Mus musculus) (UniProt Q06219). Description: Agonist activity at Nurr1 in co-culture of mouse primary neurons and microglia assessed as inhibition of LPS-induced neurotoxicity by measuring neuroprotection at 10 uM. Further details: scale not given: the % may be the effect or the level left.
A short description of series [34]: Drug metabolism in human liver microsomes. Format: ADME, Microsome. To be noted: read-out: Drug metabolism. A general note: Liver microsomes are vesicles of endoplasmic reticulum, rich in cytochrome P450 enzymes.
Series [35] in a line: Drug metabolism in mouse liver microsomes. Format: ADME, Microsome. To be noted: read-out: Drug metabolism.
Series [36] is described as follows: Genotoxicity in Salmonella typhimurium by Ames test. Format: toxicity. The note with it: salmonella enterica subsp. enterica serovar typhimurium.
A further series has as its target Cytochrome P450 3A4 (Homo sapiens, UniProt P08684). Description: Inhibition of CYP3A4 (unknown origin). Format: ADME.
Series [37] in a line: Apparent permeability in human Caco2 cells. Format: ADME, cell-based. The note with it: caco-2. For orientation: Passage across Caco-2 layers is used to estimate intestinal permeability.
The target in another series is Cytochrome P450 2C9 (Homo sapiens, UniProt P11712). Description: Inhibition of CYP2C9 (unknown origin). The series is classed as ADME.
Cytochrome P450 2C9, sequence (P11712 whole entry): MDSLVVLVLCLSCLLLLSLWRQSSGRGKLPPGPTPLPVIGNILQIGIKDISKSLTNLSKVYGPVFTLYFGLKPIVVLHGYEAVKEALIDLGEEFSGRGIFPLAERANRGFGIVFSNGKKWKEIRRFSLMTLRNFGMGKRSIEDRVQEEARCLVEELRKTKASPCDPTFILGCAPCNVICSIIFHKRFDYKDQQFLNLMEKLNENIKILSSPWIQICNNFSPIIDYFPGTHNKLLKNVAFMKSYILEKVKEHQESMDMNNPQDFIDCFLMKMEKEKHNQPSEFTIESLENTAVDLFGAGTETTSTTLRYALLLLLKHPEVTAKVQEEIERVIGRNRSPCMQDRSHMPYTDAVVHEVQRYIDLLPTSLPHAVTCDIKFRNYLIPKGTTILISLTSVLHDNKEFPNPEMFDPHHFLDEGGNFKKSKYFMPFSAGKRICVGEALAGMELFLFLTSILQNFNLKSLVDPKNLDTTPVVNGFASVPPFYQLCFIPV
Series [38] in a line: Dissociation constant, pKa of the compound. The series is classed as physicochemical.
Series [39] is described as follows: Lipophilicity, log D of the compound. Format: physicochemical. The note with it: octanol/water.
The target of series [40] is T1, Voltage-gated inwardly rectifying potassium channel KCNH2. Description: Activation of human ERG.
Series [41] has as its target Nuclear receptor subfamily 4 group A member 2 (Mus musculus) (UniProt Q06219). Description: (§1) Agonist activity at Nurr1 in mouse N2A cells harboring NBRE by luciferase reporter gene assay. Format: cell-based.
For series [42], the target named is Nuclear receptor subfamily 4 group A member 2 (Mus musculus, UniProt Q06219). Described as §1. Format: cell-based.
Nuclear receptor subfamily 4 group A member 2 (Mus musculus, UniProt Q06219), sequence (Q06219 whole entry): as the sequence (Q06219 whole entry) above
The nature of series [43]: Drug metabolism in human hepatocytes assessed as 3-(2-(4-chlorophenyl)imidazo[1,2-a]pyridin-6-yl)benzoic acid formation. Format: ADME, cell-based, Hepatocyte.
A further series concerns the target Cytochrome P450 2D6 (Homo sapiens, UniProt P10635). Description: Inhibition of CYP2D6 (unknown origin). Format: ADME.
A short description of series [44]: Solubility of the compound by HPLC analysis. Format: physicochemical.
Series [45] in a line: Stability in mouse plasma. Format: ADME, cell-free.
The target of another series is CYP450 (Homo sapiens, UniProt P04798+P05177+P05181+P08684+P10632+P10635+P11509+P11712+P13584+P20813+P20815+P20853+P24462+P24903+P33260+P33261+P51589+P78329+P98187+Q02928+Q08477+Q16678+Q16696+Q5TCH4+Q6VVX0+Q7Z449+Q8TAV3+Q96SQ9+Q9HB55). Description: Induction of CYP450 (unknown origin). Format: ADME, protein assay.

Calls of active or inactive are those of the source. The calls are words filed in the database; no cut-off is given here. A value given as a limit tells only on which side of the number the result lay.

T1 sequence (Q12809 whole entry): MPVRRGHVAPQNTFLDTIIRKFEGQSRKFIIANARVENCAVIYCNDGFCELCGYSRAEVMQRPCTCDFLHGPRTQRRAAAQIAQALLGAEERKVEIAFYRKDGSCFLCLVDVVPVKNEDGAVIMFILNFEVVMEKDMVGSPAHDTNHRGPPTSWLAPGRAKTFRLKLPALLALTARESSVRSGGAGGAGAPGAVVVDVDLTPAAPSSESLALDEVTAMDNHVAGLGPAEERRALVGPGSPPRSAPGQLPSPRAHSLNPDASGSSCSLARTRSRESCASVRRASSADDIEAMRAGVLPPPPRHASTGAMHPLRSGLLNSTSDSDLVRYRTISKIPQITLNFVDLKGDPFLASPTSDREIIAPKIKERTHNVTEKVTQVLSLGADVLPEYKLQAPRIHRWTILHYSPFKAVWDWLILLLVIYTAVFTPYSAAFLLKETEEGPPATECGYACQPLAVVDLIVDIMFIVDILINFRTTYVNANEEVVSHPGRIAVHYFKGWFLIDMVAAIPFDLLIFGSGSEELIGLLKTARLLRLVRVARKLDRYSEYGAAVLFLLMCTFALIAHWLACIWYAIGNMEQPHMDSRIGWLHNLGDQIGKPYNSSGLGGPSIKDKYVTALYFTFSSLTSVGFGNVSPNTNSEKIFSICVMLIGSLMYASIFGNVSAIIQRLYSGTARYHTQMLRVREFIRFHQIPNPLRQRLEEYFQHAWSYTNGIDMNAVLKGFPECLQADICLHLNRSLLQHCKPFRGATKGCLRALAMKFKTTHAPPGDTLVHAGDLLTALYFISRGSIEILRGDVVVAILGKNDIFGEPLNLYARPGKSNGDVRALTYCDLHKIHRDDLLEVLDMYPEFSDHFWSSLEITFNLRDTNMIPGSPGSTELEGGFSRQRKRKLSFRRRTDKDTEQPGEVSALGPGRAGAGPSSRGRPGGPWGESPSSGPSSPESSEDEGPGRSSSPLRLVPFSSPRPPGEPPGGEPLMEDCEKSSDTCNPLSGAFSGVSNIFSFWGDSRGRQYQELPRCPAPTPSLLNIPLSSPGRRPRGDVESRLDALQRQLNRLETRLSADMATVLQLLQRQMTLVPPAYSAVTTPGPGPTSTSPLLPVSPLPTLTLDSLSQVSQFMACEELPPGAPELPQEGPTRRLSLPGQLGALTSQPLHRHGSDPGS
Cytochrome P450 3A4, sequence (P08684 whole entry): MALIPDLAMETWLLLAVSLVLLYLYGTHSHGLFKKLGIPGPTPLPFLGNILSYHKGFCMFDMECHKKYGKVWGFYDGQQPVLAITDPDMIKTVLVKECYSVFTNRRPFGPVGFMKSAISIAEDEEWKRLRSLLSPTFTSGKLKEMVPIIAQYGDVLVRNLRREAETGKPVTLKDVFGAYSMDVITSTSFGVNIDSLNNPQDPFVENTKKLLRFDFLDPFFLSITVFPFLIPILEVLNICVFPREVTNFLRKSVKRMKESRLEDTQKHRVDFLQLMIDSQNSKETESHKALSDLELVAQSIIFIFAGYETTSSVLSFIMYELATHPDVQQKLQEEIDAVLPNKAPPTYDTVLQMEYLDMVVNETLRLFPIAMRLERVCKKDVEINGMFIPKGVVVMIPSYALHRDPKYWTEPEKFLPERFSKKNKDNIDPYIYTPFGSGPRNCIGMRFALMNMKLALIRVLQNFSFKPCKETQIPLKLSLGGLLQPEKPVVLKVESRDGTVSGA
Cytochrome P450 2D6, sequence (P10635 whole entry): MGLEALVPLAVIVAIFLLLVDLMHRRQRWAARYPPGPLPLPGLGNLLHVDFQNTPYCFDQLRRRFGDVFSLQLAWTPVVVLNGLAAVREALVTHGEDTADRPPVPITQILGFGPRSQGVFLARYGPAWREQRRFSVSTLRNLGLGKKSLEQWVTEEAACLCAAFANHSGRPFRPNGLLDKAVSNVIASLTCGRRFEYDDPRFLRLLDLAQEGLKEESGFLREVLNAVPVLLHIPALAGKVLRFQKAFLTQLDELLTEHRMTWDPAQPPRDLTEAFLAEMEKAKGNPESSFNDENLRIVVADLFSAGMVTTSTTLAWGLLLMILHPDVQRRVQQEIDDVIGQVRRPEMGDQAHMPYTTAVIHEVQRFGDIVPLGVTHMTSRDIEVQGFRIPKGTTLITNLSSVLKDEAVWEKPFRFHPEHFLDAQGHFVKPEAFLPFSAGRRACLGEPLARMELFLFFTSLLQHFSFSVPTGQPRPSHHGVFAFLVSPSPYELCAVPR

With `O=C(O)c1cccc(-c2ccc3nc(-c4ccc(Cl)cc4)cn3c2)c1`, the Drug metabolism entry in series [1] is on record as “Metabolite_Detected”.

With `CC(C)(O)c1cccc(-c2ccc3nc(-c4ccc(Cl)cc4)cn3c2)c1`, the AUC in series [2] was determined as 55600 ng·h/mL; in [19], 70300 ng·h/mL; in series [21], 15000 ng·h/mL; in series [23] it was 20600 ng·h/mL. For the same compound, in [3], the IC50 came out at 1500 nM. In addition, the CLH in series [4] amounted to 0.051 mL/h. The result in the series listed under Rattus norvegicus [5] and in the series listed under Rattus norvegicus [31] was Active. In addition, the concentration in series [6] is 40 µM; in series [13], not above 17 µM. Moreover, the Activity entry in series [7] is “Non-Toxic”; in series [8], 86 to 99%; in the series on Cavia porcellus, “Non-Toxic”; in the series on Canis familiaris it was “Non-Toxic”; in [15] it was “Non-Toxic”; in series [22] it was “Non-Toxic”. Further, the Activity result was “Non-Toxic” in series [25] and 188 to 284% in series [26]. Besides, the t1/2 lambda z in series [9] is 98.4 h. In addition, in series [10], the inhibition was in the range of 28 to 46%. For the same compound, the Cmax in series [11] was 3080 ng/mL; in [16], 2630 ng/mL; in series [24], 4870 ng/mL; in series [28], 4170 ng/mL. Also, the inhibition in vivo at 30 mg/kg with Rattus norvegicus [12] is 47%. For the same compound, the half-life in series [14] was 197 h; in [17], 91.2 h; in series [20] it was 194 h. For the same compound, the Tmax in series [18] is 24 h. In [27], the EC50 came to 218 nM. The Kp in series [29] was 0.7; in series [30], 0.8.

In the case of `OCc1cccc(-c2ccc3nc(-c4ccc(Cl)cc4)cn3c2)c1`, in series [4], the CLH amounted to 0.42 mL/h. For the same compound, the Stability result in series [32] and in [45] was “Stable” in each case. Moreover, the Activity in series [8] was 37%; in [33], 65%; in series [36] it was “Non-Toxic”; in [26] it was 188 to 313%. For the same compound, the metabolised in [34] came out at 22%; in series [35] it was 8%. Further, the inhibition in [10] came out at 58%. In addition, the values for the IC50 against Cytochrome P450 3A4, at Cytochrome P450 2C9 and against Cytochrome P450 2D6 were more than 10000 nM, 8600 nM and more than 10000 nM, respectively. For the same compound, in series [37], the permeability result was “Permeable”. Moreover, the pKa in [38] was 5.16. This compound also displayed a logD in series [39] of 2.95. Besides, the EC50 in series [40] was 900 nM; in series [42], 1 nM; in series [27], 45 to 75 nM. In addition, the Emax in series [41] was 240%; in [27], 239%; on CYP450 it was less than 20%. In addition, in series [43], the Drug metabolism result is on record as “Metabolite_Detected”. This compound came in with a solubility in series [44] of less than 1 µM.

By AUC is commonly meant concentration integrated over time. In general, IC50 refers to the midpoint of a concentration-inhibition curve. As a reminder, the inhibition is the relative decrease from the control value, in per cent. What is called Cmax is the peak of the concentration-time curve. One may read the inhibition in vivo as the percentage by which the read-out fell short of the control. A word on the Tmax: it is the time from dosing to the highest level. The term EC50 denotes the concentration giving half of the maximal effect. For orientation: pKa means the pH at which an ionisable group is half protonated. As usually defined, the logD is lipophilicity at a set pH, counting ionised and neutral species. For orientation: Emax means the size of the effect at its maximum, as opposed to the concentration needed. By solubility is commonly meant the dissolved amount per volume that the medium holds.
